This passage reports inhibition in vivo and Activity results from ChEMBL document CHEMBL3046808, “Novel 2-(E)-substituted benzylidene-6-(N-substituted aminomethyl)cyclohexanones and cyclohexanols as analgesic and anti-inflammatory agents” (2013).

Type in all cases: functional
Assay [1] concerns Rattus norvegicus. Kind of assay: Anti-inflammatory activity in Wistar Rattus norvegicus (rat) assessed as inhibition of carrageenan-induced paw edema at 200 mg/kg, po administered 1 hr prior to carrageenan-challenge measured after 3 hr relative to untreated control. (In general: Carrageenan injected into the paw causes an acute inflammation.)
In assay [2] the test system is Mus musculus. Kind of assay: Analgesic activity in Kunming Mus musculus (mouse) assessed as increase in pain threshold at 200 mg/kg, po after 1 hr by hot plate method (reference value: 4.2%).
For assay [3], the system named is Mus musculus. The assay is described as follows: Analgesic activity in Kunming Mus musculus (mouse) assessed as inhibition of acetic acid-induced writhing at 200 mg/kg, po administered 1 hr prior to acetic acid challenge measured for 15 min relative to untreated control.
Assay [4] has as its system Mus musculus. The assay is described as follows: Anti-inflammatory activity in Kunming Mus musculus (mouse) assessed as inhibition of xylene-induced ear swelling at 200 mg/kg, po administered 1 hr prior to xylene challenge measured after 30 min relative to untreated control.

By inhibition in vivo is commonly meant the relative decrease from the control value, in per cent.

Consider `Cc1cccc(N(C)CC2CCC/C(=C\c3ccc(S(C)(=O)=O)cc3)C2=O)c1` (configuration not stated), for which the inhibition in vivo at 200 mg/kg in assay [1] worked out at 36.2%; in assay [3] it was 72.8%; in assay [4], 36.7%. Also, in assay [2], the Activity is given as 109.98%.

As to `Cc1ccc(NCC2CCC/C(=C\c3ccccc3)C2=O)cc1` (configuration not stated), the inhibition in vivo at 200 mg/kg in assay [1] came to 72.3%; in assay [3], 82.8%; in assay [4], 56.4%. The Activity in assay [2] amounted to 166.19%.

As for `CN(CC1CCC/C(=C\c2ccccc2)C1=O)c1ccccc1` (configuration not stated), the figures for the inhibition in vivo at 200 mg/kg in assay [1], in assay [3] and in assay [4] were 76.6%, 69.7% and 49.7%, respectively. The Activity in assay [2] stood at 109.59%.

With `Cc1ccc(N(C)CC2CCC/C(=C\c3ccccc3)C2=O)cc1` (configuration not stated), the inhibition in vivo at 200 mg/kg amounted to 25.5% in assay [1], 81% in assay [3] and 18.2% in assay [4]. Moreover, the Activity in assay [2] amounted to 146.12%.

Take `Cc1cccc(N(C)CC2CCC/C(=C\c3ccccc3)C2=O)c1` (configuration not stated): the inhibition in vivo at 200 mg/kg in assay [1] turned out to be 46.8%; in assay [3] it was 76.7%; in assay [4] it was 44.9%. Besides, in assay [2], the Activity was 108.45%.

Regarding `Cc1ccc(/C=C2\CCCC(CN(C)c3ccccc3)C2=O)cc1` (configuration not stated), the inhibition in vivo at 200 mg/kg in assay [1] amounted to 44.7%; in assay [3], 68.2%; in assay [4] it was 39.5%. Besides, the Activity in assay [2] was 79.04%.

For `Cc1ccc(/C=C2\CCCC(CN(C)c3ccc(C)cc3)C2=O)cc1` (configuration not stated), the inhibition in vivo at 200 mg/kg in assay [1] was found to be 38.3%; in assay [3] it was 76.5%; in assay [4], 27.6%. The Activity in assay [2] is 71.6%.

Consider `Cc1ccc(/C=C2\CCCC(CN(C)c3cccc(C)c3)C2=O)cc1` (configuration not stated), for which the inhibition in vivo at 200 mg/kg in assay [1] came to 36.2%; in assay [3], 75.8%; in assay [4], 35.4%. Moreover, the Activity in assay [2] turned out to be 75.5%.

With `CN(CC1CCC/C(=C\c2ccc(S(C)(=O)=O)cc2)C1=O)c1ccccc1` (configuration not stated), the figures for the inhibition in vivo at 200 mg/kg in assay [1], in assay [3] and in assay [4] were 51.1%, 81% and 46.9%, respectively. Besides, in assay [2], the Activity is 142.7%.

Regarding `Cc1ccc(N(C)CC2CCC/C(=C\c3ccc(S(C)(=O)=O)cc3)C2=O)cc1` (configuration not stated), the inhibition in vivo at 200 mg/kg in assay [1] amounted to 31.9%; in assay [3] it was 84.5%; in assay [4] it was 27%. Besides, the Activity in assay [2] is recorded as 155.12%.

Take `Cc1ccc(N(C)CC2CCC/C(=C\c3ccccc3)C2(O)c2ccccc2)cc1` (racemic): the results for the inhibition in vivo at 200 mg/kg in assay [1], in assay [3] and in assay [4] were 59.6%, 64.2% and 66.7%, respectively. Further, the Activity in assay [2] came out at 70.08%.

In the case of `Cc1cccc(N(C)CC2CCC/C(=C\c3ccccc3)C2(O)c2ccccc2)c1` (racemic), the values for the inhibition in vivo at 200 mg/kg in assay [1], in assay [3] and in assay [4] were 36.2%, 70.6% and 23.1%, respectively. In addition, the Activity in assay [2] turned out to be 83.22%.

For the compound `COc1cccc(C2(O)/C(=C/c3ccccc3)CCCC2CN(C)c2ccccc2)c1` (racemic), the results for the inhibition in vivo at 200 mg/kg in assay [1], in assay [3] and in assay [4] were 38.3%, 82.2% and 34.7%, respectively. Also, in assay [2], the Activity stood at 162.71%.

As to `COc1cccc(C2(O)/C(=C/c3ccccc3)CCCC2CN(C)c2ccc(C)cc2)c1` (racemic), the inhibition in vivo at 200 mg/kg in assay [1] turned out to be 57.5%; in assay [3] it was 77.8%; in assay [4], 41.5%. Also, the Activity in assay [2] is listed as 110.54%.

Turning to `COc1cccc(C2(O)/C(=C/c3ccccc3)CCCC2CN(C)c2cccc(C)c2)c1` (racemic), the inhibition in vivo at 200 mg/kg worked out at 44.7% in assay [1], 79.9% in assay [3] and 36% in assay [4]. The Activity in assay [2] is 116.52%.

Regarding `COc1ccc(C2(O)/C(=C/c3ccccc3)CCCC2CN(C)c2ccccc2)cc1` (racemic), the inhibition in vivo at 200 mg/kg in assay [1] was 38.3%; in assay [3] it was 75.7%; in assay [4], 26.5%. Moreover, in assay [2], the Activity amounted to 121.45%.

On to `COc1ccc(C2(O)/C(=C/c3ccccc3)CCCC2CN(C)c2ccc(C)cc2)cc1` (racemic), for which the inhibition in vivo at 200 mg/kg in assay [1] amounted to 21.3%; in assay [3], 78.7%; in assay [4], 26.5%. Further, in assay [2], the Activity was 117.46%.

With `COc1cccc(C2(C)/C(=C/c3ccc(C)cc3)CCCC2CN(C)c2ccccc2)c1` (racemic), the results for the inhibition in vivo at 200 mg/kg in assay [1], in assay [3] and in assay [4] were 25.5%, 80.9% and 18%, respectively. In addition, the Activity in assay [2] stood at 153.01%.

Regarding `COc1cccc(C2(O)/C(=C/c3ccc(C)cc3)CCCC2CN(C)c2ccc(C)cc2)c1` (racemic), the inhibition in vivo at 200 mg/kg was 21.3% in assay [1], 81.6% in assay [3] and 22.9% in assay [4]. In addition, the Activity in assay [2] came out at 125.34%.

For the compound `COc1ccc(C2(O)/C(=C/c3ccc(C)cc3)CCCC2CN(C)c2ccccc2)cc1` (racemic), the inhibition in vivo at 200 mg/kg was found to be 17% in assay [1], 72.1% in assay [3] and 16.3% in assay [4]. The Activity in assay [2] is 106.84%.

As to `COc1ccc(C2(O)/C(=C/c3ccc(C)cc3)CCCC2CN(C)c2ccc(C)cc2)cc1` (racemic), the inhibition in vivo at 200 mg/kg in assay [1] stood at 29.8%; in assay [3], 62.2%; in assay [4], 29.9%. In addition, the Activity in assay [2] stood at 93.41%.

In the case of `COc1ccc(C2(O)/C(=C/c3ccc(C)cc3)CCCC2CN(C)c2cccc(C)c2)cc1` (racemic), the inhibition in vivo at 200 mg/kg in assay [1] is 29.8%; in assay [3], 74.2%; in assay [4] it was 24.5%. The Activity in assay [2] turned out to be 93.52%.

`CC(C)Cc1ccc(C(C)C(=O)O)cc1` (configuration not stated) [IBUPROFEN]: the inhibition in vivo at 200 mg/kg in assay [1] was determined as 53.2%; in assay [3] it was 84.1%; in assay [4] it was 40.1%. The Activity in assay [2] was found to be 158.56%.
